# Legend:
# [1] = system: rat microglial cells; experiment: Metabolic profile of nonsensitized rat microglial cells in vitro; format: cell-based
# Protocol: (§1) Materials and methods: Rat microglial cells were isolated by mechanical (cell sieves) disintegration of the brain tissue (FIG. 30A, FIG. 30B and FIG. 30C) followed by fractionation of the tissue homogenate in Percoll density gradient (Microglia: Methods and Protocols, Edited by Bertrand Josef and Jose Luis Venero, Springer protocol. Humana Press, 2013, 350 p.) (FIG. 31). Before the collection of the brain tissue, decapitation was performed to avoid hemorrhage to the brain during sampling (FIG. 32). Decapitation was performed immediately after anesthesia to minimize the death of brain tissue, including microglial cells. All manipulations for the isolation of microglial cells were carried out using coolants. Circulating neutrophils were isolated from venous blood taken into a tube containing EDTA in a two-step Percoll gradient (Alsharif K F et al. Vascul Pharmacol. 2015 August; 71:201-7. doi: 10.1016/j.vph.2015.02.006)(FIG. 33A and FIG. 33B). Circulating monocytes were isolated from venous blood collected into a tube containing heparin in a two-step Hypaque gradient (Macrophages and dendritic cells: Methods and Protocols, Edited by Neil E. Reiner, NY, Humana Press, 2009: 368 P). The metabolic profile of phagocytes was characterized based on the pathway of arginine metabolism (levels of arginase activity and NO synthesis measured using photocolorimetric methods), the level of formation of intracellular reactive oxygen species (ROS) by esterases and the indices of phagocytic activity determined by flow cytofluorimetry, as well as according to the activation levels of NADH and NADPH oxidases determined in NBT test. Duration of treatment of phagocytes of all the above mentioned populations varied depending on the methodological characteristics of metabolic response. A 90 minute exposure to the drugs according to Kim et al., 1977 (cited above) was used to analyze their effects on oxidative metabolism and phagocytic activity. An 18 hour exposure according to Lastra et al., 2001 (cited above) was used to analyze the drug effects on arginine metabolic pathway. To analyze the effects of the drugs under study on the induced (stimulated) metabolic activity of phagocytes, the cells were treated with lipopolysaccharide (LPS) from E. coli (Sigma, USA) according to Haddad et al., 2009 (cited above).
# [2] = system: rat peripheral blood monocytes; experiment: Metabolic profile of nonsensitized rat peripheral blood monocytes in vitro; format: cell-based
# Protocol: as §1
# [3] = system: peritoneal macrophages; experiment: Functional and phenotypic properties of peritoneal phagocytes in LPS rat models; format: in vivo; settings: animal models of PD
# Protocol: On the 1st day of the experiment, rats were either operated to model hemi-parkinsonism or sham operated. From the 9th to the 18th day of the experiment, the animals were injected either deuterium-depleted water or the test substance, according to their allocation into groups, for 10 days. On the 8th day of the experiment (before initiation of treatment—apomorphine test I) and on the 21st day of the experiment (after the end of administering the test substance —apomorphine test II) the animals underwent an apomorphine test to analyze the development of hemi-parkinsonism which correlates with the number of destroyed dopaminergic neurons. In addition, a follow-up analysis of fecal water content was carried out, i.e., before the start of treatment on the 8th day after the operation, as well as on the 21st (after the end of treatment) and the 28th day (before autopsy). On the 24th day of the experiment, behavioral tests were carried out in all groups. All animals were weighed before autopsy. […]
# To assess the anti-inflammatory and immunomodulating effects of the test substance, microglia and peritoneal macrophages were isolated. Phenotypic and functional features of peripheral blood phagocytes were evaluated without their fractioning (using whole blood). […]
# Phagocytic activity of microglia, peritoneal macrophages and peripheral blood phagocytes was analyzed on a flow cytometer using FITC-labeled S. aureus Wood 46 cells as an object of phagocytosis. […]
# Oxidative metabolism of phagocytes of various localization was analyzed by flow cytometry using the cell-permeant 2′7′-dichlorodihydrofluorescein-diacetate (DHP) (carboxy-H2DCFDA, Invitrogen, USA) which is converted by intracellular esterases to the nonfluorescent membrane-impermeable carboxy-H2DCF form.
# The phenotypic profile of phagocytes of various localization was characterized by the expression of markers of functional maturity and metabolic polarization (CD206, CD80 and CD86), which was determined by flow cytometry and the use of monoclonal antibodies of appropriate specificity marked with fluorescent dyes (Abcam, Becton Dickinson).
# [4] = regardless of the concentration, in vitro
substance,measurement,setting,value
^64Zn-enriched zinc aspartate [^64Zne-asp],arginase activity of microglial cells on the background of LPS treatment,[1]; 2.5 μg/ml,moderately strengthened
same,LPS-stimulated activity of NO synthase (synthesis of nitrites) in microglial cells,[1]; 10 μg/ml,decreased
same,ROS production stimulated by LPS in microglial cells,[1]; 20 and 5 μg/ml,significantly inhibited
same,spontaneous esterase-dependent oxidative metabolism (intracellular ROS) in microglial cells,[1]; 20 and 10 μg/ml,stimulated
same,number of phagocytic cells in the microglial population,[1]; all concentrations studied,without affecting
same,phagocytic activity of microglial cells,[1]; all concentrations studied,moderately increased
same,spontaneous esterase-dependent oxidative metabolism (intracellular ROS) in microglial cells,[1]; concentrations ≤5 μg/ml,no statistically significant effect
same,ROS production stimulated by LPS in microglial cells,[1]; other concentrations,did not have any effect
same,spontaneous arginase activity of nonsensitized microglial cells,[1]; [4],virtually no effect
same,spontaneous nitric oxide production by nonsensitized microglial cells,[1]; [4],reduced
same,LPS-stimulated oxidase-dependent respiratory burst of monocytes,[2],no effect
same,production of nitric oxide by monocytes treated with LPS,[2],moderately increased
same,spontaneous esterase-dependent intracellular ROS production by monocytes,[2],decrease
same,intracellular ROS production by bacterial LPS-treated monocytes,[2]; 10 μg/ml,statistically significantly reduced
same,spontaneous oxidative metabolism dependent on NADH and NADPH oxidases (NBT test) in monocytes,[2]; 10 μg/ml,slightly increased
same,phagocytic activity of monocytes,[2]; concentrations ≤5 μg/ml,reduced
same,spontaneous production of nitrites by nonsensitized circulating monocytes,[2]; regardless of the concentration,did not change significantly
same,arginase activity of monocytes,[2]; resting cells and bacterial LPS-treated cells,absent
same,expression of all phenotypic markers in peritoneal macrophages,[3],significant increase
same,oxidative metabolism of the peritoneal exudate cells,[3],decrease
same,phagocytic activity of the peritoneal exudate cells,[3],activation
